Measured values from US20130116302A1, “PHARMACEUTICAL COMPOSITION FOR THE TREATMENT OF CHLAMYDIAL INFECTION” (Max-Planck-Gesellschaft zur Foerderung der Wissenschaften …, priority 2010, published 2013).

Test system: C. trachomatis L2
Assay: genome-wide siRNA-based screen in human epithelial cells, formation of Chlamydia infectious progeny
Type: cell-based
Details: Table 1b, primary screen, genes of nucleotide metabolism
Text: We performed a genome-wide siRNA-based screen in human epithelial cells to identify host cell factors that are essential for Chlamydia infection using the Qiagen Hu_Genome Set V1.0 and the Human Druggable Genome siRNA Set V2.0. C. trachomatis L2 was used.

## AACATTGTACCCTATACTATA: siRNA, target gene PAPSS2; no product name printed (chemistry not given here; the letters are possibly those of the target site)
  Infectivity phenotype upon Knockdown: down

## Hs_ADCY8_5: siRNA, target gene ADCY8 (sense CACCGGCATTGAGGTAGTGAT; chemistry not given here; the letters are possibly those of the target site)
  Infectivity phenotype upon Knockdown: down

## Hs_ADCY8_8: siRNA, target gene ADCY8 (sense CAGGCCGCCTTTGAGTCTTTA; chemistry not given here; the letters are possibly those of the target site)
  Infectivity phenotype upon Knockdown: down

## Hs_ADCY9_3: siRNA, target gene ADCY9 (sense CTGGGCATGAGGAGGTTTAAA; chemistry not given here; the letters are possibly those of the target site)
  Infectivity phenotype upon Knockdown: down

## Hs_AMPD3_1: siRNA, target gene AMPD3 (sense CGGGATCACTTTGGAGGACTA; chemistry not given here; the letters are possibly those of the target site)
  Infectivity phenotype upon Knockdown: down

## Hs_AMPD3_9: siRNA, target gene AMPD3 (sense CAACAGTTTGTTCCTCGAATA; chemistry not given here; the letters are possibly those of the target site)
  Infectivity phenotype upon Knockdown: down

## Hs_ENPP1_2: siRNA, target gene ENPP1 (sense TGGGCAAACAGTAGACTTATA; chemistry not given here; the letters are possibly those of the target site)
  Infectivity phenotype upon Knockdown: down

## Hs_ENPP3_1: siRNA, target gene ENPP3 (sense CTGGCTGTTAGGAGTAAATCA; chemistry not given here; the letters are possibly those of the target site)
  Infectivity phenotype upon Knockdown: down

## Hs_ENPP3_2: siRNA, target gene ENPP3 (sense TAGCAATTTGGTACCTATGTA; chemistry not given here; the letters are possibly those of the target site)
  Infectivity phenotype upon Knockdown: down

## Hs_ENPP5_1: siRNA, target gene ENPP5 (sense AAGCATTTAATTCACAGTCAA; chemistry not given here; the letters are possibly those of the target site)
  Infectivity phenotype upon Knockdown: down

## Hs_ENPP6_1: siRNA, target gene ENPP6 (sense TTGGATAATTCTATACATAAA; chemistry not given here; the letters are possibly those of the target site)
  Infectivity phenotype upon Knockdown: down

## Hs_ENPP6_2: siRNA, target gene ENPP6 (sense CAGGGTGATGTGCATGCTGAA; chemistry not given here; the letters are possibly those of the target site)
  Infectivity phenotype upon Knockdown: down

## Hs_ENTPD4_1: siRNA, target gene ENTPD4 (sense CAGCAGGAAGAAGTAGCTAAA; chemistry not given here; the letters are possibly those of the target site)
  Infectivity phenotype upon Knockdown: down

## Hs_ENTPD4_2: siRNA, target gene ENTPD4 (sense CAGCAGAAAGCTATTCTGGAA; chemistry not given here; the letters are possibly those of the target site)
  Infectivity phenotype upon Knockdown: down

## Hs_GMPR2_11: siRNA, target gene GMPR2 (sense TCCCAAGGCACCAGTACTCTA; chemistry not given here; the letters are possibly those of the target site)
  Infectivity phenotype upon Knockdown: down

## Hs_GMPR2_12: siRNA, target gene GMPR2 (sense TTGGACCTTCACATATCTAAA; chemistry not given here; the letters are possibly those of the target site)
  Infectivity phenotype upon Knockdown: down

## Hs_GMPS_1: siRNA, target gene GMPS (sense AACAGAGAACTTGAGTGTATT; chemistry not given here; the letters are possibly those of the target site)
  Infectivity phenotype upon Knockdown: down

## Hs_GMPS_2: siRNA, target gene GMPS (sense AAGAATTTCCTTTATGATATA; chemistry not given here; the letters are possibly those of the target site)
  Infectivity phenotype upon Knockdown: down

## Hs_GUK1_6: siRNA, target gene GUK1 (sense CCCGGCGAGGAGAACGGCAAA; chemistry not given here)
  Infectivity phenotype upon Knockdown: down

## Hs_HPRT1_6: siRNA, target gene HPRT1 (sense CCCACGAAGTGTTGGATATAA; chemistry not given here; the letters are possibly those of the target site)
  Infectivity phenotype upon Knockdown: down

## Hs_HPRT1_9: siRNA, target gene HPRT1 (sense CCACAGCACTATTGAGTGAAA; chemistry not given here; the letters are possibly those of the target site)
  Infectivity phenotype upon Knockdown: down

## Hs_IMPDH1_6: siRNA, target gene IMPDH1 (sense CAGCAGCAGCCAGAAACGATA; chemistry not given here; the letters are possibly those of the target site)
  Infectivity phenotype upon Knockdown: down

## Hs_IMPDH1_7: siRNA, target gene IMPDH1 (sense CAGGCGGGCGTCGACGTCATA; chemistry not given here; the letters are possibly those of the target site)
  Infectivity phenotype upon Knockdown: down

## Hs_IMPDH2_6: siRNA, target gene IMPDH2 (sense TGGGATCCGGCTAAAGAAATA; chemistry not given here; the letters are possibly those of the target site)
  Infectivity phenotype upon Knockdown: down

## Hs_IMPDH2_8: siRNA, target gene IMPDH2 (sense AATGTGGGTCATATTGCGAAA; chemistry not given here; the letters are possibly those of the target site)
  Infectivity phenotype upon Knockdown: down

## Hs_ITPA_2: siRNA, target gene ITPA (sense CTGGAGAAGTTAAAGCCTGAA; chemistry not given here; the letters are possibly those of the target site)
  Infectivity phenotype upon Knockdown: down

## Hs_ITPA_3: siRNA, target gene ITPA (sense GAGGAGGTCGTTCAGATTCTA; chemistry not given here; the letters are possibly those of the target site)
  Infectivity phenotype upon Knockdown: down

## Hs_NME1_5: siRNA, target gene NME1 (sense TTCCGCCTTGTTGGTCTGAAA; chemistry not given here; the letters are possibly those of the target site)
  Infectivity phenotype upon Knockdown: down

## Hs_NME1_8: siRNA, target gene NME1 (sense TCCGAAGATCTTCTCAAGGAA; chemistry not given here; the letters are possibly those of the target site)
  Infectivity phenotype upon Knockdown: down

## Hs_NME2P1_2: siRNA, target gene NME2P1 (sense CAGGTTGGCAGGAACATCATT; chemistry not given here; the letters are possibly those of the target site)
  Infectivity phenotype upon Knockdown: down

## Hs_NME2P1_4: siRNA, target gene NME2P1 (sense CCTGGTGGGCAAGATCATCAA; chemistry not given here; the letters are possibly those of the target site)
  Infectivity phenotype upon Knockdown: down

## Hs_NME2_3: siRNA, target gene NME2 (sense TAGAGCATATTTGCCAATAAA; chemistry not given here; the letters are possibly those of the target site)
  Infectivity phenotype upon Knockdown: down

## Hs_NME2_6: siRNA, target gene NME2 (sense TGGGCTGGTGAAGTACATGAA; chemistry not given here; the letters are possibly those of the target site)
  Infectivity phenotype upon Knockdown: down

## Hs_NME2_22: siRNA, target gene NME2 (sense CAGCACTACATTGACCTGAAA; chemistry not given here; the letters are possibly those of the target site)
  Infectivity phenotype upon Knockdown: down

## Hs_NME3_3: siRNA, target gene NME3 (sense CTGCATCGAGGTTGGCAAGAA; chemistry not given here; the letters are possibly those of the target site)
  Infectivity phenotype upon Knockdown: down

## Hs_NME3_5: siRNA, target gene NME3 (sense ACGGCCGCCTTGTCAAGTATA; chemistry not given here; the letters are possibly those of the target site)
  Infectivity phenotype upon Knockdown: down

## Hs_NPR2_2: siRNA, target gene NPR2 (sense ACCCAACTGAATGAAGAGCTA; chemistry not given here; the letters are possibly those of the target site)
  Infectivity phenotype upon Knockdown: down

## Hs_NPR2_8: siRNA, target gene NPR2 (sense CAGCTCAGCCCTGTACATATA; chemistry not given here; the letters are possibly those of the target site)
  Infectivity phenotype upon Knockdown: down

## Hs_PAPSS2_1: siRNA, target gene PAPSS2 (sense ATGGAAGGTCCTGACAGATTA; chemistry not given here; the letters are possibly those of the target site)
  Infectivity phenotype upon Knockdown: down
